Laboratory results taken from patent US9932637B2, “Genetic polymorphisms associated with cardiovascular disorders and drug response, methods of detection and uses thereof” (CELERA CORPORATION, priority 2003, dated 2018).

Tested on: patients with prior myocardial infarction (CARE study)
Assay: CARE: association of SNPs with pravastatin treatment in cardiovascular events prevention (logistic regression, odds ratio pravastatin vs placebo by genotype; Table 8)
Type: in vivo, human
Details: for Prava vs. Placebo Odds Ratio, 1 Rare Alleles / Prava vs. Placebo Odds Ratio, 2 Rare Alleles / Non-fatal MI (def & prob), n/total (%) / Fatal/Non-fatal MI (def & prob), n/total (%) / Fatal CHD/Definite Non-fatal MI, n/total (%) / Total Coronary Heart Disease Events, n/total (%) / Fatal/Non-fatal Atherosclerotic CV Disease, n/total (%) / Hosp. for Cardiovascular Disease, n/total (%) / Total Cardiovascular Disease Events, n/total (%) / Prava vs. Placebo Odds Ratio, 0 Rare Alleles: All Patients; for Non-fatal MI (def & prob), n/total (%) / Fatal/Non-fatal MI (def & prob), n/total (%) / Fatal CHD/Definite Non-fatal MI, n/total (%) / Total Coronary Heart Disease Events, n/total (%) / Fatal/Non-fatal Atherosclerotic CV Disease, n/total (%) / Hosp. for Cardiovascular Disease, n/total (%) / Total Cardiovascular Disease Events, n/total (%): Prava
Description: In order to identify genetic markers associated with acute coronary events (e.g. MI, stroke, unstable angina, congestive heart failure, etc.) or response to statin treatment for the prevention of coronary events, samples from the Cholesterol and Recurrent Events (CARE) study (a randomized multicentral double-blinded trial on secondary prevention of acute coronary events with pravastatin) (Sacks et al., 1991, Am. J. Cardiol. 68: 1436-1446) were genotyped. A well-documented myocardial infarction (MI) was one of the enrollment criteria for entry into the CARE study. Patients were enrolled in the CARE trial from 80 participating study centers. […] Patients were randomized to receive either 40 mg of pravastatin once daily or a matching placebo. The primary endpoint of the trial was death from coronary heart disease and the median duration of follow-up was 5.0 years (range, 4.0 to 6.2 years). […] Secondary endpoints of other related cardiovascular or metabolic disease events, and changes in clinical variables were also recorded in pravastatin-treated and placebo groups. All individuals included in the study had signed a written informed consent form and the study protocol was approved by the respective Institutional Review Boards (IRBs).
For genotyping SNPs in CARE patient samples, DNA was extracted from blood samples using conventional DNA extraction methods such as the QIA-amp kit from Qiagen. Genotypes were obtained on an ABI PRISM® 7900HT Sequence Detection PCR system (Applied Biosystems, Foster City, Calif.) by kinetic allele-specific PCR, similar to the method described by Germer et al. (Germer S., Holland M. J., Higuchi R. 2000, Genome Res. 10: 258-266).
Statistical analysis for association of SNPs with pravastatin treatment in cardiovascular events prevention (Table 8) was carried out using an overall logistic regression model that included an intercept, a parameter for the effect of a genotype containing two rare alleles versus a genotype containing no rare alleles, a parameter for the effect of a genotype containing one rare allele versus a genotype containing no rare alleles, a parameter for the effect of use of pravastatin versus the use of placebo, and parameters for the interaction effects between SNP genotypes and pravastatin use. The test of the overall model is a chi-square test with two degrees of freedom for analyses containing all three genotypes, and one degree of freedom for analyses containing two genotypes.
Effect sizes were estimated through odds ratios (pravastatin group versus placebo) for carriers of each genotype (groups of 0, 1, and 2 minor allele carriers). The effect was considered to be significant if p-value for testing whether any of the interactions between SNP genotypes and pravastatin use were <0.05. […] Odds ratios less than one indicate that the specific SNP allele has a protective effect and odds ratios greater than one indicate that the specific SNP allele has an adverse effect.

[1] = IL1A hCV9546471, Total Mortality
[2] = IL1RN hCV8737990, 2 Rare Alleles, n/total 20/121
[3] = IL1RN hCV8737990, Fatal CHD/Definite Non-fatal MI
[4] = IL1RN hCV8737990, Fatal/Non-fatal Atherosclerotic CV Disease
[5] = IL1RN hCV8737990, Fatal/Non-fatal MI (def & prob)
[6] = IL1RN hCV8737990, Hosp. for Cardiovascular Disease
[7] = IL1RN hCV8737990, Non-fatal MI (def & prob)
[8] = IL1RN hCV8737990, Total Cardiovascular Disease Events
[9] = IL1RN hCV8737990, Total Coronary Heart Disease Events
[10] = IL6ST hCV16170435, 2 Rare Alleles, n/total 19/37
[11] = IL6ST hCV16170435, Hosp. for Cardiovascular Disease
[12] = IL6ST hCV16170435, Total Cardiovascular Disease Events
[13] = IL9 hCV3275199, All Patients, 0 Rare Alleles, Prava arm

SMILES: CC[C@H](C)C(=O)O[C@H]1C[C@H](O)C=C2C=C[C@H](C)[C@H](CC[C@@H](O)C[C@@H](O)CC(=O)O)[C@H]21 [pravastatin]
- Prava vs. Placebo Odds Ratio, 1 Rare Alleles [1]: 0.60
- Prava vs. Placebo Odds Ratio, 2 Rare Alleles [1]: 0.29
- Non-fatal MI (def & prob), n/total (%) (IL1RN hCV8737990, 0 Rare Alleles, n/total 68/809): (8.4%)
- Fatal/Non-fatal MI (def & prob), n/total (%) (IL1RN hCV8737990, 0 Rare Alleles, n/total 76/809): (9.4%)
- Fatal CHD/Definite Non-fatal MI, n/total (%) (IL1RN hCV8737990, 0 Rare Alleles, n/total 80/809): (9.9%)
- Total Coronary Heart Disease Events, n/total (%) (IL1RN hCV8737990, 0 Rare Alleles, n/total 228/809): (28.2%)
- Fatal/Non-fatal Atherosclerotic CV Disease, n/total (%) (IL1RN hCV8737990, 0 Rare Alleles, n/total 260/809): (32.1%)
- Hosp. for Cardiovascular Disease, n/total (%) (IL1RN hCV8737990, 0 Rare Alleles, n/total 315/809): (38.9%)
- Total Cardiovascular Disease Events, n/total (%) (IL1RN hCV8737990, 0 Rare Alleles, n/total 325/809): (40.2%)
- Fatal CHD/Definite Non-fatal MI, n/total (%) (IL1RN hCV8737990, 1 Rare Allele, n/total 44/585): (7.5%)
- Non-fatal MI (def & prob), n/total (%) (IL1RN hCV8737990, 1 Rare Allele, n/total 45/585): (7.7%)
- Fatal/Non-fatal MI (def & prob), n/total (%) (IL1RN hCV8737990, 1 Rare Allele, n/total 49/585): (8.4%)
- Total Coronary Heart Disease Events, n/total (%) (IL1RN hCV8737990, 1 Rare Allele, n/total 167/585): (28.5%)
- Fatal/Non-fatal Atherosclerotic CV Disease, n/total (%) (IL1RN hCV8737990, 1 Rare Allele, n/total 193/585): (33.0%)
- Hosp. for Cardiovascular Disease, n/total (%) (IL1RN hCV8737990, 1 Rare Allele, n/total 232/585): (39.7%)
- Total Cardiovascular Disease Events, n/total (%) (IL1RN hCV8737990, 1 Rare Allele, n/total 239/585): (40.9%)
- Fatal CHD/Definite Non-fatal MI, n/total (%) (IL1RN hCV8737990, 2 Rare Alleles, n/total 15/121): (12.4%)
- Fatal/Non-fatal MI (def & prob), n/total (%) [2]: (16.5%)
- Non-fatal MI (def & prob), n/total (%) [2]: (16.5%)
- Total Coronary Heart Disease Events, n/total (%) (IL1RN hCV8737990, 2 Rare Alleles, n/total 45/121): (37.2%)
- Fatal/Non-fatal Atherosclerotic CV Disease, n/total (%) (IL1RN hCV8737990, 2 Rare Alleles, n/total 51/121): (42.1%)
- Hosp. for Cardiovascular Disease, n/total (%) (IL1RN hCV8737990, 2 Rare Alleles, n/total 60/121): (49.6%)
- Total Cardiovascular Disease Events, n/total (%) (IL1RN hCV8737990, 2 Rare Alleles, n/total 61/121): (50.4%)
- Prava vs. Placebo Odds Ratio, 0 Rare Alleles [3]: 0.75
- Prava vs. Placebo Odds Ratio, 1 Rare Alleles [3]: 0.52
- Prava vs. Placebo Odds Ratio, 2 Rare Alleles [3]: 1.89
- Prava vs. Placebo Odds Ratio, 0 Rare Alleles [4]: 0.75
- Prava vs. Placebo Odds Ratio, 1 Rare Alleles [4]: 0.66
- Prava vs. Placebo Odds Ratio, 2 Rare Alleles [4]: 1.67
- Prava vs. Placebo Odds Ratio, 0 Rare Alleles [5]: 0.66
- Prava vs. Placebo Odds Ratio, 1 Rare Alleles [5]: 0.51
- Prava vs. Placebo Odds Ratio, 2 Rare Alleles [5]: 1.70
- Prava vs. Placebo Odds Ratio, 0 Rare Alleles [6]: 0.77
- Prava vs. Placebo Odds Ratio, 1 Rare Alleles [6]: 0.64
- Prava vs. Placebo Odds Ratio, 2 Rare Alleles [6]: 1.37
- Prava vs. Placebo Odds Ratio, 0 Rare Alleles [7]: 0.68
- Prava vs. Placebo Odds Ratio, 1 Rare Alleles [7]: 0.52
- Prava vs. Placebo Odds Ratio, 2 Rare Alleles [7]: 1.70
- Prava vs. Placebo Odds Ratio, 0 Rare Alleles [8]: 0.75
- Prava vs. Placebo Odds Ratio, 1 Rare Alleles [8]: 0.65
- Prava vs. Placebo Odds Ratio, 2 Rare Alleles [8]: 1.37
- Prava vs. Placebo Odds Ratio, 0 Rare Alleles [9]: 0.74
- Prava vs. Placebo Odds Ratio, 1 Rare Alleles [9]: 0.67
- Prava vs. Placebo Odds Ratio, 2 Rare Alleles [9]: 1.84
- Hosp. for Cardiovascular Disease, n/total (%) (IL6ST hCV16170435, 0 Rare Alleles, n/total 450/1131): (39.8%)
- Total Cardiovascular Disease Events, n/total (%) (IL6ST hCV16170435, 0 Rare Alleles, n/total 465/1131): (41.1%)
- Hosp. for Cardiovascular Disease, n/total (%) (IL6ST hCV16170435, 1 Rare Allele, n/total 139/340): (40.9%)
- Total Cardiovascular Disease Events, n/total (%) (IL6ST hCV16170435, 1 Rare Allele, n/total 142/340): (41.8%)
- Hosp. for Cardiovascular Disease, n/total (%) [10]: (51.4%)
- Total Cardiovascular Disease Events, n/total (%) [10]: (51.4%)
- Prava vs. Placebo Odds Ratio, 0 Rare Alleles [11]: 0.75
- Prava vs. Placebo Odds Ratio, 1 Rare Alleles [11]: 0.72
- Prava vs. Placebo Odds Ratio, 2 Rare Alleles [11]: 2.49
- Prava vs. Placebo Odds Ratio, 0 Rare Alleles [12]: 0.75
- Prava vs. Placebo Odds Ratio, 1 Rare Alleles [12]: 0.69
- Prava vs. Placebo Odds Ratio, 2 Rare Alleles [12]: 2.49
- Fatal/Nonfatal MI (def & prob), n/total (%) [13]: (10.8%)
- MI (Fatal/Nonfatal), n/total (%) [13]: (11.1%)
